Here are results for four compounds from article PMC12291762 (Antioxidants, 2025).

Structures are written as SMILES.

The test system of assay [1] is systemic oxidative stress parameters. In words: Systemic redox state (plasma, erythrocyte lysate) 24 h after carrageenan. It is filed as in vivo, Wistar albino rats. How it is done: Following 24 h of carrageenan-induced paw edema inflammation model and intraperitoneal anesthesia induced by ketamine/xylazine (100/10 mg/kg of BW), the animals were sacrificed, while whole-blood samples and edema-affected paw tissues were isolated. After centrifugation of whole blood, plasma and erythrocyte lysate samples were separated for further examination of the applied compounds’ effects on the systemic redox balance state. Pro-oxidative markers including superoxide anion radical (O2∙^−), hydrogen peroxide (H2O2) nitrites (NO2^−), and index of lipid peroxidation measured as thiobarbituric acid (TBA) reactive substances (TBARS) were determined from plasma samples, while the antioxidant capacity, including superoxide dismutase (SOD) and catalase (CAT) activity, as well as the reduced glutathione (GSH) level were examined in erythrocyte lysate samples [46]. […] Edema-affected paw tissue samples were weighed (100 mg) and homogenized (OmniPrep™ multi-sample homogenizer, Omni International, Kennesaw, GA, USA) in 900 µL phosphate buffer on ice (pH = 7.4), and centrifuged at 12,000 rpm for 20 min. These supernatant samples were used for the determination of the aforementioned pro-oxidative and antioxidative parameters levels. All oxidative stress analyses were performed spectrophotometrically using a Shimadzu UV 1800 spectrophotometer (Kyoto, Japan).
Determination of the O2∙^− level was conducted by adding 950 µL of a Nitro Blue Tetrazolium (NBT) mixture with TRIS buffer in 50 µL of sample, measured at the 550 nm wavelength. The level of H2O2 was determined during the oxidation of phenol red by H2O2, which was catalyzed with horseradish peroxidase and measured at the 610 nm wavelength. Indirect measurement of nitrites was performed by the precipitation of samples with 30% sulfo-salicylic acid, followed by vortexing and centrifugation at 3000 rpm for 15 min. The equal volumes of isolated supernatant and Griess’ reagent (containing 1% sulfanilamide in 5% phosphoric acid/0.1% naphthalene ethylenediamine-dihydrochloride) were incubated for 10 min and measured at the 550 nm wavelength. The TBARS concentration was determined by adding 400 µL of sample to 200 µL of TBA in 0.05 M NaOH, followed by 15 min incubation at 100 °C. Measurement was performed at the 530 nm wavelength.
The epinephrine method was used for SOD determination. By adding 100 µL of sample, the same volume of epinephrine, and 1000 µL of carbonate buffer, the measurement was performed at the 470 nm wavelength. The determination of CAT activity was based on the preparation of a mixture containing 100 µL of sample, 50 µL of catalase buffer, and 1000 µL of 10 mM H2O2, which was measured at the 230 nm wavelength.

For assay [2], the system named is carrageenan-induced rat paw edema. In words: Carrageenan-induced rat paw edema model of acute inflammation. The settings on record: for % of inhibition of paw edema, 1 h / Rat paw thickness, 1 h / % of inhibition of paw edema, 2 h / Rat paw thickness, 2 h / % of inhibition of paw edema, 3 h / Rat paw thickness, 3 h / % of inhibition of paw edema, 4 h / Rat paw thickness, 4 h / Anti-inflammatory effect on edema diameter compared to the control group (significance): 0.0315 mmol/kg i.p.; for % of inhibition of paw edema, 1 h / % of inhibition of paw edema, 2 h / % of inhibition of paw edema, 3 h / % of inhibition of paw edema, 4 h: vs solvent group; for Rat paw thickness, 1 h: 1 h post-carrageenan; for Rat paw thickness, 1 h / Rat paw thickness, 2 h / Rat paw thickness, 3 h / Rat paw thickness, 4 h / Rat paw thickness, 0 h: mean ± SD; for Rat paw thickness, 2 h: 2 h post-carrageenan; for Rat paw thickness, 3 h: 3 h post-carrageenan; for Rat paw thickness, 4 h: 4 h post-carrageenan; for Anti-inflammatory effect on edema diameter compared to the control group (significance): from 2nd hour to end of observation; for Rat paw thickness, 0 h: immediately before inflammation induction. It is filed as in vivo, Wistar albino rats. The method, then:
Inflammation was induced in all rats by an intraplantar injection of 100 μL of freshly prepared 1% carrageenan solution in distilled water into the left hind paw. A total of 56 male Wistar albino rats were randomly divided into five experimental groups (n = 40 rats, 8 rats per subgroup) and two control groups (n = 16 rats, 8 rats per subgroup).
The experimental groups consisted of rats that received synthesized compounds via intraperitoneal injection immediately following carrageenan administration. The solutions of the investigated molecules were prepared by dissolving the compound in distilled water with the addition of a few drops of Tween 80 [18], whereby each rat received 500 μL of the prepared solution. […] The negative control group included rats that received an intraperitoneal injection of the solvent solution (distilled water with a few drops of Tween 80) at the same time point.
To quantify the anti-edematous effect, the thickness of the left paw tissue of each rat was measured at specific time intervals: immediately before inflammation induction (moment 0) and at 1, 2, 3, and 4 h post-induction (moments 1, 2, 3, and 4, respectively). Tissue thickness was assessed in the middle of the rat paw using a digital vernier caliper (Aerospace, Beijing, China).

The next assay deals with T1, COX-1 (Ovis aries, UniProt P05979).
T1 sequence (P05979 25-600): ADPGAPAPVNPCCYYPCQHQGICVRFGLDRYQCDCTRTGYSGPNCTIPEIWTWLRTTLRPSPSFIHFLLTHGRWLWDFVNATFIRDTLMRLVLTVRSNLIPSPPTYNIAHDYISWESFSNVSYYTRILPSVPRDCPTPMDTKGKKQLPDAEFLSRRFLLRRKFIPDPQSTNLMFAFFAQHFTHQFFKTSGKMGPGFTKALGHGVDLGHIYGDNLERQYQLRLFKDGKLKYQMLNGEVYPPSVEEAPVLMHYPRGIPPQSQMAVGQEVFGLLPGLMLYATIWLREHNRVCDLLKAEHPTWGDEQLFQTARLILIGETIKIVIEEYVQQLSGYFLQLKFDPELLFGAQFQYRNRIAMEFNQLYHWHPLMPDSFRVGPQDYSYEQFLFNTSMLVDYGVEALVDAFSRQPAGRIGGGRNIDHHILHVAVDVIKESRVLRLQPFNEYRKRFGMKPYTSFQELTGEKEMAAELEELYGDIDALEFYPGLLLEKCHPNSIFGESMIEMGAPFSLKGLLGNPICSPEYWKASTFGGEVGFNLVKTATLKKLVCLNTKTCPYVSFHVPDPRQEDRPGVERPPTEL
In words: Fluorometric COX-1 inhibitor screening kit. The settings on record: mean ± standard error, three independent measurements. Also noted: purchased Abcam ab204698. It is filed as biochemical. How it is done:
The inhibitory activity of the tested compounds against COX-1 and COX-2 isoforms was assessed using fluorometric cyclooxygenase inhibitor screening kits (Catalog Numbers ab204698 and ab283401, respectively; Abcam, Cambridge, UK). These assays detect the formation of prostaglandin G2, a product of COX enzymatic activity, via fluorometric measurement.
Stock solutions of the test compounds were prepared at a concentration of 5 mM in DMSO and subsequently diluted with the same solvent to obtain the test solutions. For the assay preparation, 2 μL of each test solution was diluted with 8 μL of COX assay buffer. The solvent control (SC) consisted of 2 μL of DMSO and 8 μL of assay buffer, while the enzyme control (EC) contained 10 μL of assay buffer alone. Sample wells (S) received 10 μL of the diluted test solutions. All other steps were in accordance with the manufacturer’s protocol and the previously published article. […] The percentage of inhibition was calculated as follows:(3) % Relative Inhibition=Slope of EC−Slope of S/Slope of EC×100
Fluorescence measurements were conducted on a BioTek Synergy LX multi-mode reader (Winooski, VT, USA).

With `C[C@H](C(=O)NCC(=O)O)c1cccc(C(=O)c2ccccc2)c1` [Compound 1, (S)-(2-(3-benzoylphenyl)propanoyl)glycine], in assay [1] (erythrocyte lysate), the “Systemic SOD activity compared to Dex group” value was “significantly lower activity”. In addition, in assay [1] (plasma), the “Systemic O2∙− level compared to Dex group” value is given as “significantly higher concentration”; the “Systemic TBARS level compared to Dex group” value was “dexketoprofen injection significantly decreased the TBARS concentration compared to the Sol group, as well as rats treated with compounds 1, 3, and 4”; the “Systemic TBARS level compared to Sol (untreated) rats” value is “significantly reducing”. For the same compound, in assay [2], the “% of inhibition of paw edema, 1 h” value turned out to be 5.263%; the “Rat paw thickness, 1 h” value stood at 5.68 ± 0.25 mm; the “% of inhibition of paw edema, 2 h” value came out at 13.669%; the “Rat paw thickness, 2 h” value came to 5.58 ± 0.34 mm. Besides, in assay [2], the “% of inhibition of paw edema, 3 h” value is recorded as 16.842%; the “Rat paw thickness, 3 h” value came to 5.16 ± 0.34 mm; the “% of inhibition of paw edema, 4 h” value was 18.824%; the “Rat paw thickness, 4 h” value is recorded as 4.50 ± 0.29 mm. In assay [2], the “Anti-inflammatory effect on edema diameter compared to the control group (significance)” value was “did not achieve an anti-inflammatory effect at any measurement times” and the “Rat paw thickness, 0 h” value came to 3.58 ± 0.13 mm. In addition, the IC50 on COX-1 is > 100 µM.

Turning to `C[C@H](C(=O)N[C@@H](Cc1c[nH]c2ccccc12)C(=O)O)c1cccc(C(=O)c2ccccc2)c1` [Compound 4, ((S)-2-(3-benzoylphenyl)propanoyl)-L-tryptophan], in assay [1] (erythrocyte lysate), the “Systemic CAT activity compared to Dex group” value is on record as “decreased this enzyme activity”, the “Systemic GSH level compared to Dex group” value was “significantly reduced” and the “Systemic SOD activity compared to Dex group” value is on record as “significantly lower activity”. Besides, in assay [1] (plasma), the “Systemic O2∙− level compared to Dex group” value is “significantly higher concentration”; the “Systemic TBARS level compared to Dex group” value is “dexketoprofen injection significantly decreased the TBARS concentration compared to the Sol group, as well as rats treated with compounds 1, 3, and 4”. Further, in assay [2], the “% of inhibition of paw edema, 1 h” value amounted to 15.038%; the “Rat paw thickness, 1 h” value worked out at 5.90 ± 0.37 mm; the “% of inhibition of paw edema, 2 h” value is recorded as 24.460%; the “Rat paw thickness, 2 h” value is recorded as 5.77 ± 0.36 mm. In addition, in assay [2], the “% of inhibition of paw edema, 3 h” value is given as 28.070%; the “Rat paw thickness, 3 h” value stood at 5.38 ± 0.34 mm; the “% of inhibition of paw edema, 4 h” value stood at 58.824%; the “Rat paw thickness, 4 h” value amounted to 4.48 ± 0.33 mm. In assay [2], the “Anti-inflammatory effect on edema diameter compared to the control group (significance)” value is on record as “significantly reduced the edema diameter” and the “Rat paw thickness, 0 h” value turned out to be 4.02 ± 0.12 mm. Also, the IC50 at COX-1 is > 100 µM.

For the compound `C[C@H](NC(=O)[C@@H](C)c1cccc(C(=O)c2ccccc2)c1)C(=O)O` [Compound 2, ((S)-2-(3-benzoylphenyl)propanoyl)-L-alanine], in assay [1] (erythrocyte lysate), the “Systemic CAT activity compared to Dex group” value is reported as “highest potential to increase CAT activity”, the “Systemic GSH level compared to untreated rats” value is on record as “significantly increased GSH level” and the “Systemic SOD activity compared to Dex group” value was “no statistical differences”. In addition, in assay [1] (plasma), the “Systemic O2∙− level compared to Dex group” value was “no significant difference” and the “Systemic O2∙− level compared to untreated (Sol) rats” value is “significantly lower”. Besides, in assay [2], the “% of inhibition of paw edema, 1 h” value is recorded as 16.090%; the “Rat paw thickness, 1 h” value was found to be 6.52 ± 0.28 mm; the “% of inhibition of paw edema, 2 h” value was found to be 26.619%; the “Rat paw thickness, 2 h” value amounted to 6.36 ± 0.25 mm. Further, in assay [2], the “% of inhibition of paw edema, 3 h” value is 33.684%; the “Rat paw thickness, 3 h” value is 5.92 ± 0.19 mm; the “% of inhibition of paw edema, 4 h” value was found to be 62.941%; the “Rat paw thickness, 4 h” value came to 5.08 ± 0.54 mm. In assay [2], the “Anti-inflammatory effect on edema diameter compared to the control group (significance)” value was “significantly reduced the edema diameter” and the “Rat paw thickness, 0 h” value came out at 4.66 ± 0.13 mm. Further, the half-maximal inhibitory concentration (IC50) at COX-1 is > 100 µM.

For `C[C@H](C(=O)NCCCC(=O)O)c1cccc(C(=O)c2ccccc2)c1` [Compound 5, (S)-4-(2-(3-benzoylphenyl)propanamido)butanoic acid], in assay [1] (erythrocyte lysate), the “Systemic GSH level compared to untreated rats” value is reported as “significantly increased GSH level” and the “Systemic SOD activity compared to Dex group” value is recorded as “no statistical differences”. Moreover, in assay [1] (plasma), the “Systemic H2O2 level compared to Dex group” value is reported as “did not differ significantly”, the “Systemic O2∙− level compared to Dex group” value is given as “no significant difference”, the “Systemic O2∙− level compared to untreated (Sol) rats” value was “significantly lower” and the “Systemic TBARS level compared to Sol (untreated) rats” value is “significantly reducing”. For the same compound, in assay [2], the “% of inhibition of paw edema, 1 h” value stood at 7.068%; the “Rat paw thickness, 1 h” value is recorded as 5.52 ± 0.25 mm; the “% of inhibition of paw edema, 2 h” value was determined as 17.122%; the “Rat paw thickness, 2 h” value is given as 5.38 ± 0.48 mm. In addition, in assay [2], the “% of inhibition of paw edema, 3 h” value is reported as 18.947%; the “Rat paw thickness, 3 h” value stood at 5.00 ± 0.29 mm; the “% of inhibition of paw edema, 4 h” value was 27.647%; the “Rat paw thickness, 4 h” value turned out to be 4.28 ± 0.37 mm. The “Rat paw thickness, 0 h” value in assay [2] turned out to be 3.46 ± 0.29 mm. Moreover, the 50% inhibitory concentration (IC50) on COX-1 was > 100 µM.
